IC50 data for ten compounds are collected here from patent publication US20060142247A1, “Tricyclic heterocycles” (priority 2004, published 2006).

The target in this experiment is T1, Aurora A (Homo sapiens, UniProt O14965).
T1 construct: C-terminally Histidine4 (His4)-tagged Aurora A full-length protein; His4 (C)
T1 sequence (O14965 1-403): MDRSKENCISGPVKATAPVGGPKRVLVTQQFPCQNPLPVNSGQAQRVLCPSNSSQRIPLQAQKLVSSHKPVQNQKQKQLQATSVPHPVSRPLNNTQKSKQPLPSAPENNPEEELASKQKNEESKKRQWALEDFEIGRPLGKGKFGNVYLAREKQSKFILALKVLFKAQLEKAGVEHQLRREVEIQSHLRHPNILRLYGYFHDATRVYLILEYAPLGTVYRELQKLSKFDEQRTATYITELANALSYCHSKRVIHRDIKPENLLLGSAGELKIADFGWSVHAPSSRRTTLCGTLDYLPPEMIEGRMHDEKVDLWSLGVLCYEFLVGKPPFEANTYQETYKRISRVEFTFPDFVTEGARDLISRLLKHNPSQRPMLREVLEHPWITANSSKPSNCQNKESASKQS
Briefly: IC50 determination for inhibitors of Aurora A (96 MTP-ELISA). In kind it is biochemical. The note with it: His4-tagged full-length Aurora A 250 ng/ml, PKB-GSK2 200 nM, ATP 4 μM, 90 min room temperature, read-out: IC50 Aurora A kinase inhibition. On the procedure:
Aurora A is a serine threonine kinase involved in spindle assembly and chromosome segregation. The assay is a typically ELISA-type assay where biotinylated substrate (PKB-GSK2) is phosphorylated. Phosphorylation is detected by peroxidase (POD) labelled polyclonal antibody (PAK<M-Ig>S-IgG-POD) and phosphopeptide monoclonal antibody (Mab) (MAK<P-GSK>M-27E5-IgG). The assay is validated for IC50-determination.
Assay plates: 96-well polystyrene plates, streptavidin-coated,
Samples: 10 mM in dimethylsulfoxide (DMSO)
Aurora A-His-4: C-terminally Histidine4 (His4)-tagged Aurora A full-length protein, stock solution 0.7 mg/ml, final conc.: 250 ng/ml
PKB-GSK2: biotinylated peptide derived from human GSK3-alpha sequence (Biotin-SGRARTSSFAEPGG-CONH2), stock solution 600 μM, final conc.: 200 nM
PAK<M-Ig>S-IgG-POD: Anti-mouse IgG, horse radish peroxidase(HRP)-linked Antibody, diluted in 3% BSA/PBS-T (1:10000), (Cell Signaling, Cat. No.: 7076)
MAK<P-GSK>M-27E5-IgG: Phospho-GSK-3-alpha (Ser 21) (27E5) Monoclonal Antibody, stock solution 1.85 mg/ml, diluted in 3% BSA/PBS-T (1:6000), final conc.: 0.31 μg/ml, (Cell Signaling, Cat. No.: 9337B)
ATP: Adenosine-5′-triphosphate 1 mM, diluted in kinase buffer, (Roche Diagnostics GmbH, Cat. No.: 127531-001,), final conc.: 4 μM
TRIS: 2-Amino-2-hydroxymethyl-1,3-propoanediol (“tris-(hydroxymethyl)-aminomethane”) (MERCK, Cat. No.: 108382.2500)
BSA: Bovine Serum Albumin Fraction V, fatty acid free (Roche Diagnostics GmbH, Cat. No. 9100221)
EDTA Titriplex III (di-Sodium-EDTA di-Hydrate), 120 mM, (MERCK, Cat. No.: 1.08418.1000)
ABTS buffer: ABTS (2,2′-azino-bis(3-ethylbenzthiazoline-6-sulfonic acid)) 16.7 mg/ml (Roche Diagnostics GmbH, Cat. No.: 1204530) • ABTS tablets: dissolve one ABTS tablet in 50 ml of working solution (ABTS buffer) (Roche Diagnostics GmbH, Cat. No.: 1112422 ) • Tween 20: Polysorbat 20 (Roche Diagnostics GmbH, Cat. No.: 10006394-001) • DTT: 1,4-Dithiothreitol (Roche Diagnostics GmbH, Cat. No.: 197777) • MgCl2×6H2O MERCK, Cat. No.: 105833.1000 • Kinase buffer: 50 mM TRIS, 10 mM MgCl2, 1 mM DTT, 0.1% Tween 20, pH 7.8 PBS-T (=Wash buffer) (PBS-T)10 g/l PBS(Phosphate buffered saline) with 0.033% Tween 20 • 3% BSA/PBS-T: 3% BSA dissolved in PBS-T Method
This assay is performed in 96-well format for IC50 determination with 5 samples (each with 8 concentrations by twofold testing), 100 μl incubation volume and the following plate layout:
S samples, with ATP, 1% DMSO, final conc.: a=100 μM, b=20 μM, c=4 μM, d=0.8 μM, e=0.16 μM, f=0.032 μM, g=0.0064 μM, h=0.00128 μM Step/Action • (1) Sample preparation: add 24 μl per well samples (descending sequence) diluted in kinase buffer to assay plate (final conc. for DMSO 1%). • 2. Add directly 16 μl Aurora-A-his-4 diluted in kinase buffer to assay plate. • 3. Add directly 40 μl per well PKB-GSK2/ATP mixture to assay plate, (final conc.: Aurora A=250 ng/ml, GSK2=200 nM, ATP=4 μM). Negative control: without ATP. • 4. Incubate assay plate for exactly 90 min at room temperature. • 5. Stop reaction by adding 20 μl EDTA in all wells. • 6. Wash assay plate 3× with 200 μl washing buffer per well. • 7. Add 100 μl MAK<P-GSK>M27E5-IgG (1:10000) and PAK<M-Ig>S-IgG-POD (1:6000) dissolved in 3% BSA/PBS-T to assay plate per well. • 8. Incubate assay plate for 60 min at room temperature. • 9. Wash assay plate 3× with 200 μl washing buffer per well • 10. Add 100 μl ABTS solution to assay plate per well, incubate for approx. 4 min at RT on MTP shaker. • 11. Measure absorption at 405/492 nm. • 12. Calculate % inhibition as: (1−(Esample−ENC)/(EPC−ENC))×100 1)
13. Calculate IC50 using a non-linear curve fit (XLfit software (ID Business Solution Ltd., Guilford, Surrey, UK))
As for `CC1(C)CC(=O)Nc2cc3nc(-c4n[nH]c5ccccc45)[nH]c3cc21` [Example 10, 2-(1H-Indazol-3-yl)-8,8-dimethyl-1,5,7,8-tetrahydro-imidazo[4,5-g]quinolin-6-one], the IC50 is 100 to 250 nM.
Turning to `CC1(C)C(=O)N(Cc2cccnc2)c2cc3[nH]c(-c4n[nH]c5ccccc45)nc3cc21` [Example 16, 2-(1H-Indazol-3-yl)-7,7-dimethyl-5-pyridin-3-ylmethyl-5,7-dihydro-3H-imidazo[4,5-f]indol-6-one], the IC50 was in the range of 1 to 100 nM.
On to `COCCN1C(=O)C(C)(C)c2cc3nc(-c4n[nH]c5ccccc45)[nH]c3cc21` [Example 18, 2-(1H-Indazol-3-yl)-5-(2-methoxy-ethyl)-7,7-dimethyl-5,7-dihydro-3H-imidazo[4,5-f]indol-6-one], for which the IC50 lay within 1 to 100 nM.
The result for `CC1(C)C(=O)N(CC(O)CN2CCOCC2)c2cc3[nH]c(-c4n[nH]c5ccccc45)nc3cc21` (stereo not shown) [Example 29, 5-(2-Hydroxy-3-morpholin-4-yl-propyl)-2-(1H-indazol-3-yl)-7,7-dimethyl-5,7-dihydro-3H-imidazo[4,5-f]indol-6-one] reads 1 to 100 nM; that for `CC1(C)C(=O)N(Cc2nnn[nH]2)c2cc3[nH]c(-c4n[nH]c5ccccc45)nc3cc21` [Example 33, 2-(1H-Indazol-3-yl)-7,7-dimethyl-5-(1H-tetrazol-5-ylmethyl)-5,7-dihydro-3H-imidazo[4,5-f]indol-6-one], 1 to 100 nM.
With `CN(C)CCNC(=O)CN1C(=O)C(C)(C)c2cc3nc(-c4n[nH]c5ccccc45)[nH]c3cc21` [Example 38, N-(2-Dimethylamino-ethyl)-2-[2-(1H-indazol-3-yl)-7,7-dimethyl-6-oxo-6,7-dihydro-3H-imidazo[4,5-f]indol-5-yl]-acetamide], the IC50 lay in the range of 1 to 100 nM.
In the case of `CN1CCN(C(=O)CN2C(=O)C(C)(C)c3cc4nc(-c5n[nH]c6ccccc56)[nH]c4cc32)CC1` [Example 42, 2-(1H-Indazol-3-yl)-7,7-dimethyl-5-[2-(4-methyl-piperazin-1-yl)-2-oxo-ethyl]-5,7-dihydro-3H-imidazo[4,5-f]indol-6-one], the IC50 lay in the range of 1 to 100 nM.
Take `CC1(C)C(=O)N(CC(=O)N2CCCCC2)c2cc3[nH]c(-c4n[nH]c5ccccc45)nc3cc21` [Example 44, 2-(1H-Indazol-3-yl)-7,7-dimethyl-5-(2-oxo-2-piperidin-1-yl-ethyl)-5,7-dihydro-3H-imidazo[4,5-f]indol-6-one]: the IC50 was 1 to 100 nM.
On to `CC1(C)C(=O)N(CC(=O)NCC(O)CO)c2cc3[nH]c(-c4n[nH]c5ccccc45)nc3cc21` (stereo not shown) [Example 48, N-(2,3-Dihydroxy-propyl)-2-[2-(1H-indazol-3-yl)-7,7-dimethyl-6-oxo-6,7-dihydro-3H-imidazo[4,5-f]indol-5-yl]-acetamide], for which the IC50 lay in the range of 1 to 100 nM.
`CC1(C)C(=O)N(CCNC(=O)c2ccccc2)c2cc3[nH]c(-c4n[nH]c5ccccc45)nc3cc21` [Example 53, N-{2-[2-(1H-Indazol-3-yl)-7,7-dimethyl-6-oxo-6,7-dihydro-3H-imidazo[4,5-f]indol-5-yl]-ethyl}-benzamide]: the IC50 was in the range of 1 to 100 nM.
